Experimental data from US9533995B2, “Substituted N-heteroaryl spirolactam bipyrrolidines, preparation and therapeutic use thereof” (SANOFI, priority 2010, dated 2017).
Structures can show the parent of a compound that is named as a salt.

Molecular target: rhesus (Macacca Mulatta) H3 receptor (Macaca mulatta, UniProt Q865E1)
Assay: Rhesus H3 radioligand binding assay ([3H]-Methylhistamine displacement, WGA SPA beads)
Set-up: species or system rhesus monkey (Macacca Mulatta)
Details: [3H]-Methylhistamine 2 nM, rhesus H3 membranes, 25° C., 1 hour; Cheng-Prusoff
Experimental: Rhesus H3 membranes were prepared from the Flp-In T-REx 293 Cell Line (Invitrogen) stably transfected with pcDNA5/FRT/TO (Invitrogen) containing the rhesus monkey (Macacca Mulatta) 445 amino acid H3 receptor. (Genbank #AY231164). Stably transfected cultures were amplified in tissue culture flasks by standard tissue culture methods and induced to express rhesus H3 by exposure to 500 ng/ml tetracycline (Cellgro) for 24 hours. After induction, cells were dissociated from flasks utilizing Cell Stripper (Cellgro). Cells were centrifuged (1K×g, 5 min) and pellet frozen in an ethanol-dry ice bath to disrupt cell membranes. Frozen cell pellet was re-suspended in 5 mM HEPES (pH 7.4, Invitrogen) at 10 ml/1000 cm2 of harvested cells. The cell suspension was drawn through an 18 gauge needle (2-3×) followed by a 23 gauge needle (2-3×) to further disrupt cell membranes. The cell suspension was centrifuged (40K×g, 30 min). Cell membrane pellet was re-suspended in 5 mM HEPES (pH 7.4, Invitrogen) at a final protein concentration of 10 mg/ml. Rhesus H3 membranes were stored under liquid nitrogen prior to use in [3H]-Methylhistamine and GTPγS radioligand binding assays.
Rhesus H3 radioligand binding assay was performed using rhesus H3 receptor membranes (prepared as described above), [3H]-Methylhistamine (Perkin Elmer) and WGA SPA beads (wheat germ agglutinin scintillation proximity assay) beads (Amersham). The assay was performed in 96-well Opti-Plates (Packard). Each reaction contained 50 μl rhesus H3 membranes (20-30 μg total protein), 50 μl WGA SPA beads (0.1 μg) and 50 μl of 83 Ci/mmol [^3H]-Methylhistamine (final concentration 2 nM) and 50 μl of tested compound. The compounds of this invention and/or vehicle were diluted with binding buffer from 10 mM DMSO stocks. Assay plates were sealed with TopSeal (Perkin Elmer) and mixed on shaker (25° C., 1 hour). Assay plates were read on TopCount scintillation counter (Packard). Results were analyzed by Hill transformation and Ki values were determined by Cheng-Prusoff equation.

Sequence of rhesus (Macacca Mulatta) H3 receptor (Q865E1 1-445): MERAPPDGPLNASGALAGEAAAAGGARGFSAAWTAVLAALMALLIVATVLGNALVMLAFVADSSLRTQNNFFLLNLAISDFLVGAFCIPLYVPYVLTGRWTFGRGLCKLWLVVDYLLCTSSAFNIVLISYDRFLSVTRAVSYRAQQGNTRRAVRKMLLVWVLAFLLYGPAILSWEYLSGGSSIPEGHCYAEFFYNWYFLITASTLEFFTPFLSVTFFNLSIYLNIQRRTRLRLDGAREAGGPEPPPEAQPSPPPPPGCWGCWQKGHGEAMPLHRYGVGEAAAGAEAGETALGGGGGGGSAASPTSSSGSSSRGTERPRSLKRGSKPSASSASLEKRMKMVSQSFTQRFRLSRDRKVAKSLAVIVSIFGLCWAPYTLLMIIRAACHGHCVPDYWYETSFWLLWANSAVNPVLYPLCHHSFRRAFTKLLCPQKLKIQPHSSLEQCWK

Structure (SMILES)	Ki
C[C@H]1CCCN1[C@H]1CCN(c2ncc(N3CCC4(CCN(C(=O)OC(C)(C)C)CC4)C3=O)cn2)C1 [Example 12, 2-[2-((2S,3′S)-2-Methyl-[1,3′]bipyrrolidinyl-1′-yl)-pyrimidin-5-yl]-1-oxo-2,8-diaza-spiro[4.5]decane-8-carboxylic acid tert-butyl ester]	48.5 nM
Cc1nc(N2CC[C@@H](N3CCC[C@@H]3C)C2)ccc1N1CCCC2(CCNCC2)C1=O [Example 9, 2-[2-Methyl-6-((2S,3′R)-2-methyl-[1,3′]bipyrrolidinyl-1′-yl)-pyridin-3-yl]-2,9-diaza-spiro[5.5]undecan-1-one hydrochloride]	38.9 nM
Cc1nc(N2CC[C@@H](N3CCC[C@@H]3C)C2)ccc1N1CCC2(CCC(O)CC2)C1=O (stereo partly drawn) [Example 5, 8-Hydroxy-2-[2-methyl-6-((2S,3′R)-2-methyl-[1,3′]bipyrrolidinyl-1′-yl)-pyridin-3-yl]-2-aza-spiro[4.5]decan-1-one]	267 nM
Cc1nc(N2CC[C@@H](N3CCC[C@@H]3C)C2)ccc1N1CCCC2(CCOCC2)C1=O [Example 2, 2-[2-Methyl-6-((2S,3′R)-2-methyl-[1,3′]bipyrrolidinyl-1′-yl)-pyridin-3-yl]-9-oxa-2-aza-spiro[5.5]undecan-1-one]	95.1 nM
C[C@H]1CCCN1[C@H]1CCN(c2cnc(N3CCC4(CCNCC4)C3=O)cn2)C1 [Example 10, 2-[5-((2S,3′S)-2-Methyl-[1,3′]bipyrrolidinyl-1′-yl)-pyrazin-2-yl]-2,8-diaza-spiro[4.5]decan-1-one]	26.3 nM
C[C@H]1CCCN1[C@H]1CCN(c2cnc(N3CCC4(CCN(C(=O)OC(C)(C)C)CC4)C3=O)cn2)C1 [Example 14, 2-[5-((2S,3′S)-2-Methyl-[1,3′]bipyrrolidinyl-1′-yl)-pyrazin-2-yl]-1-oxo-2,8-diaza-spiro[4.5]decane-8-carboxylic acid tert-butyl ester]	105 nM
Cc1nc(N2CC[C@H](N3CCC[C@@H]3C)C2)ccc1N1CCC2(CCN(C(=O)OC(C)(C)C)CC2)C1=O [Example 15, 2-[2-Methyl-6-((2S,3′S)-2-methyl-[1,3′]bipyrrolidinyl-1′-yl)-pyridin-3-yl]-1-oxo-2,8-diaza-spiro[4.5]decane-8-carboxylic acid tert-butyl ester]	95.5 nM
Cc1nc(N2CC[C@@H](N3CCC[C@@H]3C)C2)ccc1N1CCC2(CCOCC2)C1=O [Example 1, 2-[2-Methyl-6-((2S,3′R)-2-methyl-[1,3′]bipyrrolidinyl-1′-yl)-pyridin-3-yl]-8-oxa-2-aza-spiro[4.5]decan-1-one]	37.6 nM
Cc1nc(N2CC[C@@H](N3CCC[C@@H]3C)C2)ccc1N1CCC2(CCCCC2)C1=O [Example 6, 2-[2-Methyl-6-((2S,3′R)-2-methyl-[1,3′]bipyrrolidinyl-1′-yl)-pyridin-3-yl]-2-aza-spiro[4.5]decan-1-one]	56.5 nM

The next compounds have a lower Ki than those just listed; values first:

Ki	Structure (SMILES)
17.5 nM	Cc1nc(N2CC[C@@H](N3CCC[C@@H]3C)C2)ccc1N1CCC2(CCNCC2)C1=O [Example 8, 2-[2-Methyl-6-((2S,3′R)-2-methyl-[1,3′]bipyrrolidinyl-1′-yl)-pyridin-3-yl]-2,8-diaza-spiro[4.5]decan-1-one hydrochloride]
4.21 nM	C[C@H]1CCCN1[C@H]1CCN(c2ncc(N3CCC4(CCOCC4)C3=O)cn2)C1 [Example 16, 2-[2-((2S,3′S)-2-Methyl-[1,3′]bipyrrolidinyl-1′-yl)-pyrimidin-5-yl]-8-oxa-2-aza-spiro[4.5]decan-1-one]
22.3 nM	C[C@H]1CCCN1[C@H]1CCN(c2ccc(N3CCC4(CCOCC4)C3=O)nc2)C1 [Example 13, 2-[5-((2S,3′S)-2-Methyl-[1,3′]bipyrrolidinyl-1′-yl)-pyridin-2-yl]-8-oxa-2-aza-spiro[4.5]decan-1-one]
7.1 nM	Cc1nc(N2CC[C@H](N3CCC[C@@H]3C)C2)ccc1N1CCC2(CCOCC2)C1=O [Example 7, 2-[2-Methyl-6-((2S,3′S)-2-methyl-[1,3′]bipyrrolidinyl-1′-yl)-pyridin-3-yl]-8-oxa-2-aza-spiro[4.5]decan-1-one]
7.57 nM	Cc1nc(N2CC[C@H](N3CCC[C@@H]3C)C2)ccc1N1CCC2(CCNCC2)C1=O [Example 11, 2-[2-Methyl-6-((2S,3′S)-2-methyl-[1,3′]bipyrrolidinyl-1′-yl)-pyridin-3-yl]-2,8-diaza-spiro[4.5]decan-1-one]
